Test results taken from ChEMBL document CHEMBL1201862, “PubChem BioAssay data set” (2004).
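Interpolation was linear, between the two tested concentrations surrounding the appropriate level; five concentrations were tested over 48 hours in 96-well plates. Here, GI50 denotes the concentration required for 50% inhibition of growth.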 Activity calls are given as the source filed them. No stated cut-off is given here; in the data, active = GI50 up to about 1.1 µM and inactive = higher.

Assays:
Assay in all cases: NCI tumour cell line growth inhibition, 48 h
[1] = tested on: A498
[2] = tested on: A549
[3] = tested on: ACHN
[4] = tested on: COLO 205
[5] = tested on: DU-145
[6] = tested on: HCC 2998
[7] = tested on: HCT-116
[8] = tested on: HCT-15
[9] = tested on: HOP-62
[10] = tested on: HT-29
[11] = tested on: Hs-578T
[12] = tested on: IGROV-1
[13] = tested on: M14
[14] = tested on: MDA-MB-231
[15] = tested on: MDA-MB-435
[16] = tested on: MDA-N
[17] = tested on: NCI-H226
[18] = tested on: NCI-H23
[19] = tested on: NCI-H460
[20] = tested on: NCI/ADR-RES
[21] = tested on: OVCAR-4
[22] = tested on: OVCAR-5
[23] = tested on: OVCAR-8
[24] = tested on: SF-268
[25] = tested on: SF-295
[26] = tested on: SF-539
[27] = tested on: SK-MEL-28
[28] = tested on: SK-MEL-2
[29] = tested on: SK-OV-3
[30] = tested on: SN12C
[31] = tested on: SNB-19
[32] = tested on: SNB-75
[33] = tested on: TK-10
[34] = tested on: U-251
[35] = tested on: UACC-257
[36] = tested on: UO-31
[37] = tested on: 786-0
[38] = tested on: CAKI-1
[39] = tested on: EKVX
[40] = tested on: HOP-92
[41] = tested on: KM12
[42] = tested on: LOX IMVI
[43] = tested on: OVCAR-3
[44] = tested on: PC-3
[45] = tested on: RXF 393
[46] = tested on: SK-MEL-5
[47] = tested on: SW-620
[48] = tested on: UACC-62

| SMILES | GI50 [2] | GI50 [3] | GI50 [4] | GI50 [5] | GI50 [7] | GI50 [8] [µM] | GI50 [10] | GI50 [12] | GI50 [13] | GI50 [15] | GI50 [17] | GI50 [18] | GI50 [20] | GI50 [21] | GI50 [24] | GI50 [25] | GI50 [27] | GI50 [30] | GI50 [31] | GI50 [34] | further results |
| --- | --- | --- | --- | --- | --- | --- | --- | --- | --- | --- | --- | --- | --- | --- | --- | --- | --- | --- | --- | --- | --- |
| O=c1ccn([C@@H]2O[C@H](CO)[C@@H](O)[C@H]2F)c(=O)[nH]1 | > 100 µM (inactive) | > 100 µM (inactive) | > 100 µM (inactive) | > 100 µM (inactive) | > 99.8 µM (inactive) | > 99.5 | > 100 µM (inactive) | > 100 µM (inactive) | > 100 µM (inactive) | > 100 µM (inactive) | > 100 µM (inactive) | > 100 µM (inactive) | > 100 µM (inactive) | > 100 µM (inactive) | > 100 µM (inactive) | > 100 µM (inactive) | > 100 µM (inactive) | > 100 µM (inactive) | > 100 µM (inactive) | 95.1 µM (inactive) | GI50 [1]: > 100 µM (inactive); GI50 [6]: > 100 µM (inactive); GI50 [9]: > 100 µM (inactive); GI50 [11]: > 100 µM (inactive); GI50 [14]: > 100 µM (inactive); GI50 [16]: > 100 µM (inactive); GI50 [19]: 88.7 µM (inactive); GI50 [22]: > 100 µM (inactive); GI50 [23]: > 100 µM (inactive); GI50 [26]: > 100 µM (inactive); GI50 [28]: > 100 µM (inactive); GI50 [29]: > 100 µM (inactive); GI50 [32]: > 100 µM (inactive); GI50 [33]: > 100 µM (inactive); GI50 [35]: > 100 µM (inactive); GI50 [36]: > 100 µM (inactive) |
| COc1ccc2c(ccc3c(C(=O)NCCN(C)CCNC(=O)c4cn(C)c5c4ccc4cc(OC)ccc45)cn(C)c32)c1 | 1.79 µM (inactive) | 1.72 µM (inactive) | 2.01 µM (inactive) | 1.73 µM (inactive) | 1.79 µM (inactive) | 1.26 | 1.4 µM (inactive) | 1.02 µM (active) | 1.64 µM (inactive) | 2.38 µM (inactive) | 0.628 µM (active) | 1.32 µM (inactive) | 1.42 µM (inactive) | 1.56 µM (inactive) | 1.95 µM (inactive) | 1.85 µM (inactive) | 1.79 µM (inactive) | 1.49 µM (inactive) | 1.95 µM (inactive) | 3.16 µM (inactive) | GI50 [37]: 1.53 µM (inactive); GI50 [1]: 20 µM (inactive); GI50 [38]: 1.62 µM (inactive); GI50 [39]: 1.3 µM (inactive); GI50 [6]: 1.47 µM (inactive); GI50 [9]: 1.44 µM (inactive); GI50 [40]: 2.61 µM (inactive); GI50 [11]: 1.95 µM (inactive); GI50 [41]: 1.66 µM (inactive); GI50 [42]: 2.15 µM (inactive); GI50 [16]: 1.57 µM (inactive); GI50 [19]: 1.45 µM (inactive); GI50 [43]: 1.51 µM (inactive); GI50 [44]: 1.51 µM (inactive); GI50 [45]: 1.4 µM (inactive); GI50 [46]: 1.63 µM (inactive); GI50 [47]: 2.18 µM (inactive); GI50 [35]: 1.58 µM (inactive); GI50 [48]: 1.84 µM (inactive); GI50 [36]: 1.45 µM (inactive) |
| CCC1(c2ccc(N3C(=O)c4ccccc4C3=O)cc2)CCC(=O)NC1=O (configuration not stated) | > 10 µM (inactive) | > 10 µM (inactive) | > 10 µM (inactive) | > 10 µM (inactive) | > 10 µM (inactive) | > 10 | > 10 µM (inactive) | > 10 µM (inactive) | > 10 µM (inactive) | > 10 µM (inactive) | > 10 µM (inactive) | > 10 µM (inactive) | > 10 µM (inactive) | > 10 µM (inactive) | > 10 µM (inactive) | > 10 µM (inactive) | > 10 µM (inactive) | > 10 µM (inactive) | > 10 µM (inactive) | > 10 µM (inactive) | GI50 [38]: > 10 µM (inactive); GI50 [39]: > 10 µM (inactive); GI50 [40]: > 10 µM (inactive); GI50 [41]: > 10 µM (inactive); GI50 [14]: > 10 µM (inactive); GI50 [43]: > 10 µM (inactive); GI50 [22]: > 10 µM (inactive); GI50 [23]: > 10 µM (inactive); GI50 [44]: > 10 µM (inactive); GI50 [45]: > 10 µM (inactive); GI50 [26]: > 10 µM (inactive); GI50 [46]: > 10 µM (inactive); GI50 [32]: > 10 µM (inactive); GI50 [47]: > 10 µM (inactive); GI50 [33]: > 10 µM (inactive); GI50 [36]: > 10 µM (inactive) |
